Reference: patent US20140349320A1, “Using Adaptive Immunity to Detect Drug Resistance” (The Trustees of the University of Pennsylvania, priority 2011, published 2014)

How the values were obtained:
[1] = system: MTB strains (Beijing family, wild-type parent and rpoB H445D rifampicin-resistant isolate); type: cell-based, Mycobacterium tuberculosis
[2] = system: MTB strains (Haarlem family, wild-type parent and rpoB S450L rifampicin-resistant isolate); type: cell-based, Mycobacterium tuberculosis

Structure (SMILES) | drug susceptibility [1] | drug susceptibility [2] | MIC [1] [µg/mL]
NC(=O)c1cnccn1 [pyrazinamide] | susceptible | susceptible | –
CC[C@@H](CO)NCCN[C@@H](CC)CO [ethambutol] | susceptible | susceptible | –
NNC(=O)c1ccncc1 [isoniazid] | susceptible | susceptible | < 0.2
